According to US20080124384A1, “Heteroaryl Substituted Piperazinyl-Pyridine Analogues” (priority 2005, published 2008):

Columns and labels:
human capsaicin receptor [1] = molecular target: T1, human capsaicin receptor (Homo sapiens, UniProt Q8NER1); experiment: Calcium mobilization assay, determination of antagonist activity (Example 6); type: cell-based; settings: cells expressing human capsaicin receptor; capsaicin at its EC50; read-out: IC50 determined as described in Example 6
T1 construct: expressed in transfected cells; host or cells: HEK293 cells stably transfected with pBK-CMV construct
T1 sequence (Q8NER1 whole entry): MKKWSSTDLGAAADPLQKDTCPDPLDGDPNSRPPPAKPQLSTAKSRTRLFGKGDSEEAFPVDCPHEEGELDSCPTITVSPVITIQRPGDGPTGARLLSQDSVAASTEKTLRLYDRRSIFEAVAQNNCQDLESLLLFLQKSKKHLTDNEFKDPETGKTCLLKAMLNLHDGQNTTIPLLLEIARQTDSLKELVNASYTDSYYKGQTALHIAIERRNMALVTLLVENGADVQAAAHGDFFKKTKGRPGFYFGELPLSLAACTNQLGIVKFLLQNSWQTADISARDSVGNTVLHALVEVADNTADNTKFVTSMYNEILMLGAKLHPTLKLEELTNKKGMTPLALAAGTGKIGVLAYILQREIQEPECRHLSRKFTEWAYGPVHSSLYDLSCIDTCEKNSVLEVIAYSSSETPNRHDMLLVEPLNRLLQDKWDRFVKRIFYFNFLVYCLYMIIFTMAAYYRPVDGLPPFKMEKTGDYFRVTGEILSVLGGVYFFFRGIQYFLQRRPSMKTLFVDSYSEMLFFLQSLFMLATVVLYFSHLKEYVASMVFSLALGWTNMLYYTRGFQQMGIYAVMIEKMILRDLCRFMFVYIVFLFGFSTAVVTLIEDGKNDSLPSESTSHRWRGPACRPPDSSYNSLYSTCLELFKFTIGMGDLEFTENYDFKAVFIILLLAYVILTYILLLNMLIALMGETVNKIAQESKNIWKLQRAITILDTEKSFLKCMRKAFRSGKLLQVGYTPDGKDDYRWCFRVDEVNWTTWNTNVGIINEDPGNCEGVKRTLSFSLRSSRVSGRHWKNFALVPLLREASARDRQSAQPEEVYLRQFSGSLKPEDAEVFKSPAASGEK
Text: A cDNA encoding full length human capsaicin receptor (SEQ ID NO:1, 2 or 3 of U.S. Pat. No. 6,482,611) is subcloned in the plasmid pBK-CMV (Stratagene, La Jolla, Calif.) for recombinant expression in mammalian cells.
Human embryonic kidney (HEK293) cells are transfected with the pBK-CMV expression construct encoding the full length human capsaicin receptor using standard methods. […] Independent clones are isolated from this pool by limiting dilution to obtain clonal stable cell lines for use in subsequent experiments.
This Example illustrates representative calcium mobilization assays for use in evaluating test compounds for agonist and antagonist activity.
(§1) Cells transfected with expression plasmids (as described in Example 4) and thereby expressing human capsaicin receptor are seeded and grown to 70-90% confluency in FALCON black-walled, clear-bottomed 96-well plates (#3904, BECTON-DICKINSON, Franklin Lakes, N.J.). The culture medium is emptied from the 96 well plates and FLUO-3 AM calcium sensitive dye (Molecular Probes, Eugene, Oreg.) is added to each well (dye solution: 1 mg FLUO-3 AM, 440 μL DMSO and 440 μl 20% pluronic acid in DMSO, diluted 1:250 in Krebs-Ringer HEPES (KRH) buffer (25 mM HEPES, 5 mM KCl, 0.96 mM NaH2PO4, 1 mM MgSO4, 2 mM CaCl2, 5 mM glucose, 1 mM probenecid, pH 7.4), 50 μl diluted solution per well). Plates are covered with aluminum foil and incubated at 37° C. for 1-2 hours in an environment containing 5% CO2. After the incubation, the dye is emptied from the plates, and the cells are washed once with KRH buffer, and resuspended in KRH buffer.
To measure the ability of a test compound to agonize or antagonize a calcium mobilization response in cells expressing capsaicin receptors to capsaicin or other vanilloid agonist, the EC50 of the agonist capsaicin is first determined. An additional 20 μl of KRH buffer and 1 μl DMSO is added to each well of cells, prepared as described above. 100 μl capsaicin in KRH buffer is automatically transferred by the FLIPR instrument to each well. […] Data obtained between 30 and 60 seconds after agonist application are used to generate an 8-point concentration response curve, with final capsaicin concentrations of 1 nM to 3 μM.
Test compounds are dissolved in DMSO, diluted in 20 μl KRH buffer so that the final concentration of test compounds in the assay well is between 1 μM and 5 μM, and added to cells prepared as described above. The 96 well plates containing prepared cells and test compounds are incubated in the dark, at room temperature for 0.5 to 6 hours. It is important that the incubation not continue beyond 6 hours. Just prior to determining the fluorescence response, 100 μl capsaicin in KRH buffer at twice the EC50 concentration determined as described above is automatically added by the FLIPR instrument to each well of the 96 well plate for a final sample volume of 200 μl and a final capsaicin concentration equal to the EC50. The final concentration of test compounds in the assay wells is between 1 μM and 5 μM.

human capsaicin receptor [2] = molecular target: T1, human capsaicin receptor; experiment: Calcium mobilization assay, agonist response (Example 6); type: cell-based; settings: positive control in the agonist assay; read-out: approximate EC90 concentration
Experimental: as §1
To measure the ability of a test compound to agonize or antagonize a calcium mobilization response in cells expressing capsaicin receptors to capsaicin or other vanilloid agonist, the EC50 of the agonist capsaicin is first determined. An additional 20 μl of KRH buffer and 1 μl DMSO is added to each well of cells, prepared as described above. 100 μl capsaicin in KRH buffer is automatically transferred by the FLIPR instrument to each well. […]

VR = settings: typically; no more than moderate affinity; read-out: Ki value (binds to VR); cited from earlier work

Compound | IC50 (human capsaicin receptor [1]) [nM] | other results
COc1cc(CNC(=O)CCCC/C=C/C(C)C)ccc1O [capsaicin] |  | EC90 (human capsaicin receptor [2]): ~100 nM
CC1CCCN1c1nc(-c2ccc(F)cc2)cc(N2CCC(c3nnn[nH]3)CC2)n1 (stereo not shown) [Compound 1, 4-(4-Fluoro-phenyl)-2-(2-methyl-pyrrolidin-1-yl)-6-[4-(1H-tetrazol-5-yl)-piperidin-1-yl]pyrimidine] | < 1000 | 
CC1CCCN1c1nc(-c2ccc(F)cc2)cc(N2CCN(c3nccn3C)CC2)n1 (stereo not shown) [Compound 2, 4-(4-Fluoro-phenyl)-6-[4-(1-methyl-1H-imidazol-2-yl)-piperazin-1-yl]-2-(2-methyl-pyrrolidin-1-yl)-pyrimidine] | < 1000 | 
Cl.Cl.Cl.Cl.Cl.Cl.N.N.N.N.N.N.N.N.N.N.N.N.N.N.[O-2].[O-2].[Ru+3].[Ru+3].[Ru+4] [ruthenium red] |  | Ki (VR): ≥ 140 µM

Further lines, with some results ahead:

IC50 (human capsaicin receptor [1]) [nM] | Compound | other results
< 1000 | CC1CCCN1c1nc(-c2ccc(F)c(Cl)c2)cc(N2CCN(c3nsnc3Cl)CC2)n1 (stereo not shown) [Compound 4] | 
< 1000 | C[C@@H]1CCCN1c1nc(-c2ccc(F)c(Cl)c2)cc(N2CCN(c3nccn3C)CC2)n1 [Compound 5, 4-(3-Chloro-4-fluoro-phenyl)-6-[4-(1-methyl-1H-imidazol-2-yl)-piperazin-1-yl]-2-((R)-2-methyl-pyrrolidin-1-yl)-pyrimidine] | 
< 1000 | CC1CCCN1c1nc(-c2ccc(F)cc2)cc(N2CCC(c3nccn3C)CC2)n1 (stereo not shown) [Compound 3] | 
